From patent US20100197765A1, “METHOD FOR PROMOTING THE EXPRESSION OF P53, AND P53 EXPRESSION PROMOTER FOR USE IN THE METHOD” (THE UNIVERSITY OF TOKUSHIMA, priority 2007, published 2010)

Tests used:
Assay type in all cases: cell-based, human
HCT116 cells = assay: apoptosis of siRNA-expressing HCT116 cells treated with low-concentration anticancer agents, with or without rVEGF; conditions: for enhancement of apoptosis when cells were treated with rVEGF protein: HCT116, 1 ng/ml rVEGF plus anticancer agents; for apoptosis by treatments with anticancer agents of low concentrations: HCT116, etoposide 20 μmol/L, doxorubicin 170 nmol/L, 5-FU 40 μmol/L, 60 hours, vs untreated
Protocol: The recombinant vectors that express vegf siRNA#1 and #2 and the vectors that express control siRNA were transfected into HCT116 cells (parent cells, wild-type p53). As a control cell, an HCT116 cell not transfected with a recombinant vector that expresses siRNA was used. These four types of cells were treated in the presence or absence of various anticancer agents having the final concentrations as described below for 60 hours. As the anticancer agent, etoposide (20 μmol/L), doxorubicin (170 nmol/L), and 5-FU (40 μmol/L) were used. With respect to the treated cells, apoptosis (%) was quantified in the same manner as in Example A1.
UTR RNA and function of VEGF protein. With the aim of clarifying an effect of blocking the function of vegf 5′ UTR RNA, recombinant VEGF protein (R&D systems, hereinafter referred to as “rVEGF”) was added to a culture supernatant of cells transfected with vegf siRNA in order to add VEGF protein that is decreased due to siRNA. […] Therefore, in Example A9, 1 ng/ml of rVEGF protein was added to the four types of cells. […] Then, these transfection cells were treated with anticancer agents in the same manner as described above.

vegf IresRNA = vegf IresRNA by Northern blotting in siRNA-transfected HCT116 cells; conditions: HCT116, 18 hours after transfection, vs control cells
Protocol: Whether or not vegf siRNA promotes the apoptosis sensitivity of cells was examined. In the same manner as in Example A1 except that HCT116 cells (parent cells, wild-type p53) were used instead of the HepG2 cells (wild-type p53), the vegf siRNA #1 vectors expressing siRNA #1, the vegf siRNA #2 vectors expressing siRNA #2, and the control siRNA vectors described above were respectively transfected into the HCT116 cells (parent cells, wild-type p53). Then, with regard to the cells after 18 hours from the transfection, the expression levels of vegf mRNA and gapdh mRNA were analyzed by quantitative RT-PCR (means±SD, n=4) and the expression levels of vegf IresRNA and gapdh mRNA were analyzed by Northern blotting. Also, with regard to HCT116 cells not transfected with the above-described recombinant vectors, the analyses were conducted in the same manner. The quantitative RT-PCR was conducted in the same manner as in Example B1, except that a primer set for vegf mRNA was used.

HepG2 cells = assay: apoptosis (Apoptotic evaluation 1) of siRNA-expressing HepG2 cells treated with 5-FU; conditions: for basal apoptosis: HepG2, 0 μmol/L 5-FU; for proportion of apoptosis in response to 5-FU: HepG2, 5-FU 10, 30 μmol/L, 60 hours, concentration-dependent
Protocol: Objective cells were treated with various anticancer agents, and then incubated with trypsin/EDTA to prepare cell suspensions. The cell suspensions were centrifuged and supernatants thereof were removed. Thereafter, the cell suspensions each were immobilized and stained with a solution of formaldehyde of 3.7%, Nonidet P40 of 0.5%, and 10 μg/mL of Hoechst33258 (Invitrogen) in PBS. […] The counting was performed with respect to at least 300 cells in one measurement.
Each type of the recombinant vectors was transfected into HepG2 cells for 18 hours in the same manner as in the above-described item (1). Each type of the transfection cells was treated with an anticancer agent “5-FU” having a predetermined concentration (0, 10, 30 μmol/L) for 60 hours. Then, the apoptosis (%) of the treated cells was examined according to “Apoptosis evaluation 1”. FIG. 1B is a graph showing apoptosis (%) in each type of the cells treated with 5-FU having a predetermined concentration (means±SD, n=3).

bax mRNA and noxa mRNA = assay: bax and noxa mRNA by quantitative RT-PCR in siRNA-transfected HCT116 cells; conditions: HCT116, 5-FU 80 μmol/L, 24 hours, vs control
Protocol: Whether or not the increase in the 5-FU-induced expression of p53 mRNA caused by the knockdown of vegf IresRNA by vegf siRNA induces expression of mRNA of a bax gene or a noxa gene, which are both p53 target genes, was examined. Cells obtained by transfecting the same control siRNA vectors, vegf siRNA #1 vectors, or vegf siRNA #2 vectors as in the above into parent cells HCT116 were treated for 24 hours in the presence of 80 μmol/L of 5-FU (+) or in the absence of 5-FU (−). Thereafter, expressions of bax mRNA and noxa mRNA were analyzed by quantitative RT-PCR (means±SD, n=4).

parent cells HCT116 = assay: apoptosis (TUNEL) in parental HCT116 cells with vegf siRNA and 5-FU; conditions: parent cells HCT116, siRNA expressed and 80 mmol/L of 5-FU, 60 hours
Protocol: Apoptotic cells were evaluated by a TUNEL staining method using in situ Cell Death Detection kit (Roche Diagnostic). […] The counting was performed with respect to at least 300 cells in one measurement.
Various types of cells were treated with 5-FU, which is an anticancer agent inducing apoptosis in a p53-dependent manner, and the sensitivity to apoptosis was analyzed. The vegf siRNA#1 vectors expressing siRNA#1, the vegf siRNA #2 vectors expressing siRNA #2, and the control siRNA vectors described above respectively were transfected into HCT 116 (parent cells) and p53-deleted cells HCT116. Then, the cells after 18 hours from the transfection was treated for 60 hours in the presence of […] of 5-FU (+) or in the absence of 5-FU (−). The proportion (%) of apoptosis positive cells in the thus-treated cells was calculated based on “Apoptotic evaluation 2” above (means±SD, n=4).

Substance	enhancement of apoptosis when cells were treated with rVEGF protein (HCT116 cells)	apoptosis by treatments with anticancer agents of low concentrations (HCT116 cells)	amount of the expressed vegf IresRNA (vegf IresRNA)	basal apoptosis (HepG2 cells)	proportion of apoptosis in response to 5-FU (HepG2 cells)	induction of the expressions of bax mRNA and noxa mRNA by 5-FU (bax mRNA and noxa mRNA)	proportion of apoptosis (parent cells HCT116)
siRNA #1: siRNA against vegf mRNA, SEQ ID NO 3/4, antisense complementary to bases 1062-1082 in SEQ ID NO. 1; expressed from pcDNA6.2-GW/EmGFP-miR vector (sense GCAUUGGACUUGCCUUGCUNN; antisense AGCAAGGCAAGGCUCCAAUGCNN)	affected very little	enhanced markedly	decreased	not affected	increased markedly	promoted markedly	increased markedly
siRNA #2: siRNA against vegf mRNA, SEQ ID NO 5/6, antisense complementary to bases 1067-1087 in SEQ ID NO. 1; vector-expressed (sense GGAGCCUUGUUGCUGCUCUNN; antisense AGAGCAGCAAGGCAAGGCUCCNN)	affected very little	enhanced markedly	decreased markedly	not affected	increased markedly	promoted markedly	increased markedly
